The values below come from US11395798B2, “O/W type emulsion” (NOF CORPORATION, priority 2015, dated 2022).

Experiment in one data set: not given
To be noted: water/octanol; cited from earlier work.
Consider `CCCCCCCCCCCCCCCC(=O)Oc1ccc2c(C)cc(=O)oc2c1` [4-methylumbelliferone palmitate], for which the “Log Pow” value was 7.92. On to `COc1ccc2c(c1)c(CC(=O)OCC(=O)O)c(C)n2C(=O)c1ccc(Cl)cc1` [acemetacin], for which the “Log Pow” value is reported as 4.49. Turning to `CCC(=O)OCC(=O)[C@@]1(OC(=O)CC)[C@@H](C)C[C@H]2[C@@H]3CCC4=CC(=O)C=C[C@]4(C)[C@@]3(Cl)[C@@H](O)C[C@@]21C` [beclopetasone propionate], the “Log Pow” value is on record as 4.07. As to `COC(=O)C1=C(C)NC(C)=C(C(=O)OC2CCCN(Cc3ccccc3)C2)C1c1cccc([N+](=O)[O-])c1` (centres unmarked) [benidipine], the “Log Pow” value was 5.56. `CCc1oc2ccccc2c1C(=O)c1cc(Br)c(O)c(Br)c1` [benzbromarone]: the “Log Pow” value was 6.65. For the compound `CCCCC(=O)O[C@]1(C(=O)CO)[C@@H](C)C[C@H]2[C@@H]3CCC4=CC(=O)C=C[C@]4(C)[C@@]3(F)[C@@H](O)C[C@@]21C` [betamethasone valerate], the “Log Pow” value is 4.14. Turning to `c1ccc(-c2ccc(C(c3ccccc3)n3ccnc3)cc2)cc1` (centres unmarked) [bifonazole], the “Log Pow” value is reported as 4.69. In the case of `CCOc1nc2cccc(C(=O)OC(C)OC(=O)OC3CCCCC3)c2n1Cc1ccc(-c2ccccc2-c2nnn[nH]2)cc1` (centres unmarked) [candesartancilexetil], the “Log Pow” value is recorded as 7.21. For the compound `COc1ccccc1OCCNCC(O)COc1cccc2[nH]c3ccccc3c12` (centres unmarked) [carvedilol], the “Log Pow” value was 4.07. For `CCCCCCCCCCCCCCCC(=O)OC[C@@H](NC(=O)C(Cl)Cl)[C@H](O)c1ccc([N+](=O)[O-])cc1` [chloramphenicol palmitate], the “Log Pow” value is 8.69. Consider `[H]/N=C(\N/C(=N/[H])NCCCCCCNC(=N)NC(=N)Nc1ccc(Cl)cc1)Nc1ccc(Cl)cc1` [chlorhexidine], for which the “Log Pow” value was 4.58. For the compound `C=C1CC[C@H](O)C/C1=C/C=C1\CCC[C@]2(C)[C@@H]([C@H](C)CCCC(C)C)CC[C@@H]12` [cholecalciferol], the “Log Pow” value is given as 9.08.

Turning to `CCC(C)(Oc1ccc(C2(c3ccc(OC(C)(CC)C(=O)O)cc3)CCCCC2)cc1)C(=O)O` (centres unmarked) [clinofibrate], the “Log Pow” value is on record as 6.33. Regarding `Clc1ccccc1C(c1ccccc1)(c1ccccc1)n1ccnc1` [clotrimazole], the “Log Pow” value is listed as 4.93. In the case of `C#C[C@]1(O)CC[C@H]2[C@@H]3CCC4=Cc5oncc5C[C@]4(C)[C@H]3CC[C@@]21C` [danazol], the “Log Pow” value is 4.94. Regarding `CC(C)(C)c1ccc(C(=O)CCCN2CCC(OC(c3ccccc3)c3ccccc3)CC2)cc1` [ebastine], the “Log Pow” value is 6.81. For `C=C1CC[C@H](O)C/C1=C/C=C1\CCC[C@]2(C)[C@@H]([C@H](C)/C=C/[C@H](C)C(C)C)CC[C@@H]12` [ergocalciferol], the “Log Pow” value was 9.15. Turning to `C[C@]12CC[C@@H]3c4ccc(OC(=O)c5ccccc5)cc4CC[C@H]3[C@@H]1CC[C@@H]2O` [estradiol benzoate], the “Log Pow” value is given as 5.10. In the case of `C#C[C@]1(O)CC[C@H]2[C@@H]3CCc4cc(O)ccc4[C@H]3CC[C@@]21C` [ethinylestradiol], the “Log Pow” value is given as 4.11.

For `CCCCCCC(=O)OCCN1CCN(CCCN2c3ccccc3Sc3ccc(C(F)(F)F)cc32)CC1` [fluphenazine enanthate], the “Log Pow” value was 7.29. Turning to `COc1ccc2c(c1)c(CC(=O)O)c(C)n2C(=O)c1ccc(Cl)cc1` [indomethacin], the “Log Pow” value is recorded as 4.25. In the case of `O=C(COCCOCCOCC(=O)Nc1c(I)cc(I)c(C(=O)O)c1I)Nc1c(I)cc(I)c(C(=O)O)c1I` [iotroxatic acid], the “Log Pow” value was 4.32. Regarding `CC(C)Oc1ccc2c(=O)c(-c3ccccc3)coc2c1` [ipriflavone], the “Log Pow” value is reported as 4.25. Turning to `CCC(C)n1ncn(-c2ccc(N3CCN(c4ccc(OCC5COC(Cn6cncn6)(c6ccc(Cl)cc6Cl)O5)cc4)CC3)cc2)c1=O` (centres unmarked) [itraconazole], the “Log Pow” value is 5.00.

For `Cc1cccc(Nc2ccccc2C(=O)O)c1C` [mefenamic acid], the “Log Pow” value is given as 4.83.

In the case of `CC(C)=CCC/C(C)=C/CC/C(C)=C/CC/C(C)=C/CC1=C(C)C(=O)c2ccccc2C1=O` [menatetrenone], the “Log Pow” value is given as 8.79. `COC1(O[C@H]2CC[C@H]3[C@@H]4CC[C@H]5C[C@@H]6S[C@@H]6C[C@]5(C)[C@H]4CC[C@]23C)CCCC1` [mepitiostane]: the “Log Pow” value is given as 6.89. As for `c1ccc2c(c1)Sc1ccccc1N2CC1CN2CCC1CC2` (centres unmarked) [mequitazine], the “Log Pow” value was 5.20.

Take `C#C[C@]1(O)CC[C@H]2[C@@H]3CCc4cc(OC)ccc4[C@H]3CC[C@@]21C` [mestranol]: the “Log Pow” value is 4.94.

Consider `CCC(=O)O[C@@H]1CC(=O)O[C@H](C)C/C=C/C=C/[C@H](OC(C)=O)[C@H](C)C[C@H](CC=O)[C@H](O[C@@H]2O[C@H](C)[C@@H](O[C@H]3C[C@@](C)(OC(C)=O)[C@@H](OC(=O)CC)[C@H](C)O3)[C@H](N(C)C)[C@H]2O)[C@H]1OC` [midecamycin acetate], for which the “Log Pow” value is 5.58. Take `CC(C)=CCN1CCC2(C)c3cc(O)ccc3CC1C2C` (centres unmarked) [pentazocine]: the “Log Pow” value is 4.15. Consider `CC1=C(C/C=C(\C)CCC[C@H](C)CCC[C@H](C)CCCC(C)C)C(=O)c2ccccc2C1=O` [phytonadione], for which the “Log Pow” value is listed as 10.31. As for `O=c1[nH]c2ccccc2n1C1CCN(CCCC(c2ccc(F)cc2)c2ccc(F)cc2)CC1` [pimozide], the “Log Pow” value is on record as 5.76.

Turning to `COC(=O)[C@H]1[C@H]2C[C@@H]3c4[nH]c5cc(OC)ccc5c4CCN3C[C@H]2C[C@@H](OC(=O)c2cc(OC)c(OC)c(OC)c2)[C@@H]1OC` [reserpine], the “Log Pow” value is given as 4.45. Consider `CCCCCCCCCCCCCCCC(=O)OC/C=C(C)/C=C/C=C(C)/C=C/C1=C(C)CCCC1(C)C` [retinol palmitate], for which the “Log Pow” value is recorded as 14.32. `CCCC(=O)OC[C@@H](OC(=O)CCC)[C@@H](OC(=O)CCC)[C@H](Cn1c2nc(=O)[nH]c(=O)c-2nc2cc(C)c(C)cc21)OC(=O)CCC` [riboflavin butyrate]: the “Log Pow” value is listed as 6.25. As to `Cc1cc(O)c2c(c1)O[C@@]1(C)CC[C@H]3C(C)(C)CCC[C@]34CO[C@@H]2[C@H]41` [siccanin], the “Log Pow” value is recorded as 6.10. Consider `C=CC[C@@H]1/C=C(\C)C[C@H](C)C[C@H](OC)[C@H]2O[C@@](O)(C(=O)C(=O)N3CCCC[C@H]3C(=O)O[C@H](/C(C)=C/[C@@H]3CC[C@@H](O)[C@H](OC)C3)[C@H](C)[C@@H](O)CC1=O)[C@H](C)C[C@@H]2OC` [tacrolimus], for which the “Log Pow” value is listed as 4.79.

On to `CC(=O)Oc1c(C)c(C)c2c(c1C)CCC(C)(CCC[C@H](C)CCC[C@H](C)CCCC(C)C)O2` (some centres unmarked) [tocopheryl acetate], for which the “Log Pow” value is reported as 10.69. In the case of `Cc1cccc(N(C)C(=S)Oc2ccc3ccccc3c2)c1` [tolnaftate], the “Log Pow” value is on record as 5.14. Take `COC1=C(OC)C(=O)C(C/C=C(\C)CC/C=C(\C)CC/C=C(\C)CC/C=C(\C)CC/C=C(\C)CC/C=C(\C)CC/C=C(\C)CC/C=C(\C)CC/C=C(\C)CCC=C(C)C)=C(C)C1=O` [ubidecarenone]: the “Log Pow” value is given as 19.12. In the case of `C[C@H](CCC(=O)O)[C@H]1CC[C@H]2[C@@H]3[C@@H](O)C[C@@H]4C[C@H](O)CC[C@]4(C)[C@H]3CC[C@]12C` [ursodeoxycholic acid], the “Log Pow” value is reported as 4.76. Take `CC(C(=O)O)c1ccc2c(c1)CC(=O)c1ccccc1S2` (centres unmarked) [zaltoprofen]: the “Log Pow” value is 4.25. Consider retinol acetate, for which the “Log Pow” value was 7.19.

tocopherol: the “Log Pow” value is 10.96.

Another data set in a line: particle size distribution by dynamic light scattering (Zetasizer Nano ZS). The data set is classed as physicochemical. As to conditions: O/W emulsion cationic lipid:DOPE:Cholesterol=3:4:3, 4-Methylumbelliferon 10 mol %, DMG-PEG2000 10 mol %, DSG-PEG2000 2.5 mol %. The method, then:
The particle size distribution of the prepared emulsion was measured by dynamic light scattering using Zetasizer Nano ZS. The measurement conditions were 1 mM emulsion (40 μL) at 25° C. As a result, in all compositions, the volume median diameter was not more than 100 nm and, when a linear head was used (i.e., the formula (I) wherein X^a and X^b are each X^1), the particle size was not more than 50 nm. The drug recovery rate was not less than 85% (FIG. 1, Table 2).
EPC and Cholesterol were mixed to achieve 1000 nmol and a PEG lipid was added. Chloroform in an amount equal to that of the lipid ethanol solution was added and the mixture was dried under a nitrogen blow. PBS (1 mL) was added to the lipid membrane after drying and the mixture was stood for 10 min and sonicated by a bath-type sonicator for 3 min to give a particle suspension. The particle size distribution of the prepared particles was measured by dynamic light scattering in the same manner as in Example 1.
The particle size distribution of the produced emulsion solution was measured by dynamic light scattering similarly to Example 1. As a result, when DOPC was used, the volume median diameter was near 40 nm irrespective of pH.
An ethanol solution containing 500 nmol as a total of cationic B-2, DOPE, and Cholesterol was prepared, and a PEG lipid was added in the above-mentioned amount. Ethanol was added to make the total amount 200 μL, and the mixture was stood at ice temperature for 15 min. A similarly ice-cooled malic acid buffer (20 mM, pH 3.0, 0-1000 mM NaCl) (200 μL) was mixed within 3 sec under vortex. PBS (NISSUI) (3600 μL) was immediately added thereto. The mixture was subjected to ultrafiltration using Amicon Ultra (Millipore). The centrifugation conditions were 1000 G, 25° C. An operation including addition of 3200 μL of PBS after centrifugation for 10 min was repeated twice and the sample was concentrated to about 500 μL. The concentrate was diluted with PBS to a mass of 1000 mg to give a 0.5 mM (lipid concentration) emulsion. The particle size distribution of the produced emulsion solution was measured by dynamic light scattering similarly to Example 1.
The volume median diameter and the surface potential were measured using the dynamic light scattering (Zetasizer Nano; Malvern) in the same manner as in Example 1.
The average particle size of the produced particles was measured in the same manner as in Example 1 and the results are shown in Table 7.
Take `CCCCC/C=C\C/C=C\CCCCCCCC(=O)OCCCN(C)CCSSCCN(C)CCCOC(=O)CCCCCCC/C=C\C/C=C\CCCCC` [B-2-3]: the PdI is 0.419.

The data set is the same for the next values; noted with them: O/W emulsion cationic lipid:DOPE:Cholesterol=3:4:3, 4-Methylumbelliferon 10 mol %, DMG-PEG2000 10 mol %, DSG-PEG2000 2.5 mol %; 1 mM, 25° C.
`CCCCC/C=C\C/C=C\CCCCCCCC(=O)OCCCN(C)CCSSCCN(C)CCCOC(=O)CCCCCCC/C=C\C/C=C\CCCCC` [B-2-3] had a volume median diameter of 34.3 nm.
